Measurements as given in ChEMBL document CHEMBL4364264, “Tetrazole hybrids with potential anticancer activity” (Eur J Med Chem, 2019).
Converted amounts (≈) assume the structure as drawn.

Experiments:
PC-3 [1] = assay: Cytotoxicity against human PC3 cells; format: functional, cell-based
HCT-116 [2] = assay: Cytotoxicity against human HCT116 cells; format: functional, cell-based
HT-29 = assay: cells; details: Homo sapiens, HT-29, 48 h
Description: Antiproliferative activity against human HT-29 cells after 48 hrs by MTT assay

PC-3 [3] = assay: cells; details: Homo sapiens, PC-3, 48 h
SiHa = assay: Cytotoxicity against human SiHa cells; format: functional
PANC-1 = assay: Cytotoxicity against human PANC1 cells; format: functional
MDA-MB-231 [4] = assay: Cytotoxicity against human MDA-MB-231 cells; format: functional
MCF7 [5] = assay: Cytotoxicity against human MCF7 cells; format: functional, cell-based
Caco-2 = assay: Cytotoxicity against human Caco2 cells; format: functional, cell-based
HeLa [6] = assay: Cytotoxicity against human HeLa cells; format: functional, cell-based
SK-BR-3 = assay: Cytotoxicity against human SKBR3 cells; format: functional, cell-based
MCF7 [7] = assay: Growth inhibition of human MCF7 cells; format: functional
HeLa [8] = assay: Growth inhibition of human HeLa cells; format: functional
HepG2 [9] = assay: Growth inhibition of human HepG2 cells; format: functional
MDA-MB-231 [10] = assay: Growth inhibition of human MDA-MB-231 cells by microtiter plate assay; format: functional
DU-145 = assay: Growth inhibition of human DU145 cells by microtiter plate assay; format: functional
MCF7 [11] = assay: Growth inhibition of human MCF7 cells by microtiter plate assay; format: functional
HepG2 [12] = assay: Cytotoxicity against human HepG2 cells
HCT-116 [13] = assay: Cytotoxicity against human HCT116 cells after 96 hrs by MTT assay; format: functional, cell-based; details: HCT-116, 96 h
HepG2 [14] = assay: Cytotoxicity against human HepG2 cells after 96 hrs by MTT assay; format: functional, cell-based; details: HepG2, 96 h

## COc1cc(/C=C/C(=O)c2ccc(C)cc2)ccc1Oc1nnnn1-c1ccccc1
PC-3 [1]
  IC50: 2.5 to 7 µg/mL (≈ 6.06 to 17 µM)
HCT-116 [2]
  IC50: 2.5 to 7 µg/mL (≈ 6.06 to 17 µM)

## COc1ccc(-c2nn(-c3ccccc3)cc2-c2nnn(CC(=O)O)n2)cc1
HT-29
  IC50: 7.23 to 48.3 µM
PC-3 [3]
  IC50: 7.23 to 48.3 µM

## O=C(O)c1cn(C2CC2)c2cc(N3CCN(C(=O)CCSc4nnnn4-c4ccc(Br)cc4)CC3)c(F)cc2c1=O
SiHa
  GI50: 0.066 to 1.3 µM
PANC-1
  GI50: 0.066 to 1.3 µM
MDA-MB-231 [4]
  GI50: 0.066 to 1.3 µM

## NC1=C(c2nnn[nH]2)C(c2ccccc2Cl)c2c(ccc3ccccc23)O1 (centres undefined)
MCF7 [5]
  IC50: 15 to 87 µM
Caco-2
  IC50: 15 to 87 µM
HeLa [6]
  IC50: 15 to 87 µM
SK-BR-3
  IC50: 15 to 87 µM

## CN(C)C(=O)NC(c1ccccc1)n1cnnn1 (centres undefined)
MCF7 [7]
  GI50: 8.2 to 41 µM
HeLa [8]
  GI50: 8.2 to 41 µM
HepG2 [9]
  GI50: 8.2 to 41 µM

## CCn1cc(C(=O)O)c(=O)c2cnc(N3CCN(C(=O)CCSc4nnnn4-c4ccc(C(F)(F)F)cc4)CC3)nc21
SiHa
  GI50: 0.066 to 1.3 µM
PANC-1
  GI50: 0.066 to 1.3 µM
MDA-MB-231 [4]
  GI50: 0.066 to 1.3 µM

## CCc1cc2c(cc1O)CC[C@@H]1[C@@H]2CC[C@]2(C)[C@@H](Cc3nnn(C)n3)CC[C@@H]12
MDA-MB-231 [10]
  GI50: 0.8 to 47 µM
DU-145
  GI50: 0.8 to 47 µM
MCF7 [11]
  GI50: 0.8 to 47 µM

## COc1cc(/C=C/C(=O)c2ccc(Cl)cc2)ccc1Oc1nnnn1-c1ccccc1
PC-3 [1]
  IC50: 2.5 to 7 µg/mL (≈ 5.78 to 16.2 µM)
HCT-116 [2]
  IC50: 2.5 to 7 µg/mL (≈ 5.78 to 16.2 µM)

## COc1cc(/C=C/C(=O)c2ccc(F)cc2)ccc1Oc1nnnn1-c1ccccc1
PC-3 [1]
  IC50: 2.5 to 7 µg/mL (≈ 6 to 16.8 µM)
HCT-116 [2]
  IC50: 2.5 to 7 µg/mL (≈ 6 to 16.8 µM)

## NC1=C(c2nnn[nH]2)C(c2ccccc2F)c2c(ccc3ccccc23)O1 (centres undefined)
MCF7 [5]
  IC50: 15 to 87 µM
Caco-2
  IC50: 15 to 87 µM
HeLa [6]
  IC50: 15 to 87 µM
SK-BR-3
  IC50: 15 to 87 µM

## CCc1cc2c(cc1OS(N)(=O)=O)CC[C@@H]1[C@@H]2CC[C@]2(C)[C@@H](Cc3nnn(C)n3)CC[C@@H]12
MDA-MB-231 [10]
  GI50: 0.8 to 47 µM
DU-145
  GI50: 0.8 to 47 µM
MCF7 [11]
  GI50: 0.8 to 47 µM

## NC(=S)NNC(c1ccc(O)cc1)n1cnnn1 (centres undefined)
MCF7 [7]
  GI50: 5.2 to 29.8 µM
HeLa [8]
  GI50: 5.2 to 29.8 µM
HepG2 [9]
  GI50: 5.2 to 29.8 µM

## CCc1ccc(C2C(c3nnn[nH]3)=C(N)Oc3ccc4ccccc4c32)cc1 (centres undefined)
MCF7 [5]
  IC50: 15 to 87 µM
Caco-2
  IC50: 15 to 87 µM
HeLa [6]
  IC50: 15 to 87 µM
SK-BR-3
  IC50: 15 to 87 µM

## O=C(O)Cn1nnc(-c2cn(-c3ccccc3)nc2-c2ccccc2Cl)n1
HT-29
  IC50: 6.43 to 18.2 µM
PC-3 [3]
  IC50: 6.43 to 18.2 µM

## CCc1cc2c(cc1OS(N)(=O)=O)CC[C@@H]1[C@@H]2CC[C@]2(C)[C@@H](Cc3nnnn3C)CC[C@@H]12
MDA-MB-231 [10]
  GI50: 0.34 to 0.55 µM
DU-145
  GI50: 0.34 to 0.55 µM
MCF7 [11]
  GI50: 0.34 to 0.55 µM

## COc1ccc(OC)c(C2C(c3nnn[nH]3)=C(N)Oc3ccc4ccccc4c32)c1 (centres undefined)
MCF7 [5]
  IC50: 15 to 87 µM
Caco-2
  IC50: 15 to 87 µM
HeLa [6]
  IC50: 15 to 87 µM
SK-BR-3
  IC50: 15 to 87 µM

## CN(C)C(=O)NC(c1ccc(O)cc1)n1cnnn1 (centres undefined)
MCF7 [7]
  GI50: 8.2 to 41 µM
HeLa [8]
  GI50: 8.2 to 41 µM
HepG2 [9]
  GI50: 8.2 to 41 µM

## NC1=C(c2nnn[nH]2)C(c2ccc(Br)cc2)c2c(ccc3ccccc23)O1 (centres undefined)
MCF7 [5]
  IC50: 15 to 87 µM
Caco-2
  IC50: 15 to 87 µM
HeLa [6]
  IC50: 15 to 87 µM
SK-BR-3
  IC50: 15 to 87 µM

## COc1ccc(C(=O)/C=C/c2ccc(Oc3nnnn3-c3ccccc3)cc2)cc1OC
PC-3 [1]
  IC50: 3 µg/mL (≈ 7 µM)
HCT-116 [2]
  IC50: 3.7 µg/mL (≈ 8.64 µM)

## COc1ccc(C(=O)/C=C/c2ccc(Oc3nnnn3-c3ccccc3)c(OC)c2)cc1OC
PC-3 [1]
  IC50: 2.2 µg/mL (≈ 4.8 µM)
HCT-116 [2]
  IC50: 1.6 µg/mL (≈ 3.49 µM)

## O=C(O)Cn1nnc(-c2cn(-c3ccccc3)nc2-c2ccc(Cl)cc2)n1
HT-29
  IC50: 6.43 µM
PC-3 [3]
  IC50: 9.83 µM

## NC1=C(c2nnn[nH]2)C(c2ccc(Cl)cc2)c2c(ccc3ccccc23)O1 (centres undefined)
MCF7 [5]
  IC50: 15 to 87 µM
Caco-2
  IC50: 15 to 87 µM
HeLa [6]
  IC50: 15 to 87 µM
SK-BR-3
  IC50: 15 to 87 µM

## CCc1cc2c(cc1O)CC[C@@H]1[C@@H]2CC[C@]2(C)[C@@H](Cc3nnn[nH]3)CC[C@@H]12
MDA-MB-231 [10]
  GI50: 0.34 to 100 µM
DU-145
  GI50: 0.34 to 100 µM
MCF7 [11]
  GI50: 0.34 to 100 µM

## CCc1cc2c(cc1OS(N)(=O)=O)CC[C@@H]1[C@@H]2CC[C@]2(C)[C@@H](Cc3nnn[nH]3)CC[C@@H]12
MDA-MB-231 [10]
  GI50: 0.34 to 100 µM
DU-145
  GI50: 0.34 to 100 µM
MCF7 [11]
  GI50: 0.34 to 100 µM

## COc1cccc2c1C(=O)c1c(O)c3c(c(O)c1C2=O)C[C@@](O)(C(=O)CO)C[C@@H]3O[C@H]1C[C@H](N)[C@H](O)[C@H](C)O1 [DOXORUBICIN]
HT-29
  IC50: 2.24 µM
HepG2 [12]
  IC50: 4 µg/mL (≈ 7.36 µM)
PC-3 [3]
  IC50: 3.86 µM
HCT-116 [13]
  IC50: 2.6 µM
HepG2 [14]
  IC50: 2.85 µM

## O=c1[nH]cc(F)c(=O)[nH]1 [FLUOROURACIL]
MCF7 [5]
  IC50: 9.74 to 21.4 µg/mL
PC-3 [1]
  IC50: 21.4 µg/mL (≈ 165 µM)
Caco-2
  IC50: 10 to 17 µM
HCT-116 [2]
  IC50: 17.3 µg/mL (≈ 133 µM)
HeLa [6]
  IC50: 10 to 17 µM
SK-BR-3
  IC50: 10 to 17 µM

## CC/C(=C(\c1ccccc1)c1ccc(OCCN(C)C)cc1)c1ccccc1 [TAMOXIFEN]
SiHa
  GI50: 0.12 µM
PANC-1
  GI50: 0.15 µM
MDA-MB-231 [4]
  GI50: 0.24 µM
